Assays:
blackgrass = assay: Test B pre/postemergence blackgrass; type: in vivo, Alopecurus myosuroides
Outline: (§1)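 Test chemicals in a non-phytotoxic solvent mixture with surfactant were sprayed preemergence onto planted seeds and postemergence onto plants 2 to 18 cm tall (1- to 4-leaf stage). After twelve to sixteen days in a greenhouse, injury was visually rated against untreated controls from 0 (no effect) to 10 (complete control).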

pigweed = assay: Test B pre/postemergence pigweed; type: in vivo, Amaranthus retroflexus
Outline: as §1

crabgrass = assay: Test B pre/postemergence crabgrass; type: in vivo, Digitaria sanguinalis
Outline: as §1

sugar beet = assay: Test B pre/postemergence sugar beet; type: in vivo, Beta vulgaris
Outline: as §1

surinam grass = assay: Test B pre/postemergence surinam grass; type: in vivo, Brachiaria decumbens; settings: for Plant response rating, B. signalgrass: Postemergence; for B. signalgrass plant response rating: Preemergence
Outline: as §1

rape = assay: Test B pre/postemergence rape; type: in vivo, Brassica napus
Outline: as §1

purple nutsedge = assay: Test B pre/postemergence purple nutsedge; type: in vivo, Cyperus rotundus
Outline: as §1

soybean = assay: Test B pre/postemergence soybean; type: in vivo, Glycine max
Outline: as §1

smallflower flatsedge = assay: Test B flood test smallflower flatsedge; type: in vivo, Cyperus difformis
Outline: (§2)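 Flood test on plants grown to the 2-leaf stage; treated plants kept in greenhouse twelve to sixteen days, then visually rated against controls on a 0 (no effect) to 10 (complete control) scale.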

velvetleaf = assay: Test B pre/postemergence velvetleaf; type: in vivo, Abutilon theophrasti
Outline: as §1

cocklebur = assay: Test B pre/postemergence cocklebur; type: in vivo, Xanthium strumarium
Outline: as §1

bamyardgrass = assay: Test B flood test barnyardgrass; type: in vivo, Echinochloa crus-galli
Outline: as §2

giant foxtail = assay: Test B pre/postemergence giant foxtail; type: in vivo, Setaria faberii
Outline: as §1

wheat = assay: Test B pre/postemergence wheat; type: in vivo, Triticum aestivum
Outline: as §1

corn = assay: Test B pre/postemergence corn; type: in vivo, Zea mays
Outline: as §1

morningglory = assay: Test B pre/postemergence morningglory; type: in vivo, Ipomoea hederacea
Outline: as §1

duck salad = assay: Test B flood test duck salad; type: in vivo, Heteranthera limosa
Outline: as §2

wild oat = assay: Test B pre/postemergence wild oat; type: in vivo, Avena fatua
Outline: as §1

rice = assay: Test B flood test rice; type: in vivo, Oryza sativa
Outline: as §2

[1] = Postemergence, Rate 62 g/ha, scale 0 to 10, 0 is no effect, 10 is complete control
[2] = Postemergence, Rate 125 g/ha, scale of 0 to 10 where 0 is no effect and 10 is complete control
[3] = Postemergence, Rate 250 g/ha, scale of 0 to 10, 0 is no effect, 10 is complete control
[4] = Postemergence, Rate 500 g/ha, scale of 0 to 10 where 0 is no effect and 10 is complete control
[5] = Preemergence, Rate 62 g/ha, scale 0 to 10 (0 no effect, 10 complete control)
[6] = Preemergence, Rate 125 g/ha, scale of 0 to 10 where 0 is no effect and 10 is complete control
[7] = Preemergence, Rate 500 g/ha, scale of 0 to 10 where 0 is no effect and 10 is complete control
[8] = Rate 125 g/ha, scale of 0 to 10 where 0 is no effect and 10 is complete control
[9] = Rate 500 g/ha, scale of 0 to 10 where 0 is no effect and 10 is complete control
[10] = Rate 62 g/ha, flood test species, Pre-emergence, visual evaluation after twelve to sixteen days
[11] = Rate 125 g/ha, under heading Pre-emergence, flood test species, visual evaluation after twelve to sixteen days
[12] = Rate 250 g/ha, Pre-emergence (flood test species), scale 0 to 10, 0 is no effect, 10 is complete control
[13] = Rate 500 g/ha, Pre-emergence section of Table B, 0 to 10 scale (0 no effect, 10 complete control)

SMILES: C=C(Cl)Cn1c(=O)on(C(=O)N(c2ccccc2)C(C)C)c1=O [Compound 608]
- Plant response rating, Blackgrass (blackgrass; [1]): 4
- Plant response rating, Blackgrass (blackgrass; [2]): 6
- Blackgrass plant response rating (blackgrass; [3]): 8
- Plant response rating, Blackgrass (blackgrass; [4]): 9
- Blackgrass plant response rating (blackgrass; [5]): 2
- Blackgrass plant response rating (blackgrass; [6]): 5
- Blackgrass plant response rating (0 to 10 scale) (blackgrass; Preemergence, Rate 250 g/ha): 7
- Blackgrass plant response rating (blackgrass; [7]): 9
- Plant response rating, Redroot pigweed (pigweed; [1]): 3
- Plant response rating, Redroot pigweed (pigweed; [2]): 5
- Redroot pigweed plant response rating (pigweed; [3]): 7
- Plant response rating, Redroot pigweed (pigweed; [4]): 8
- Redroot pigweed plant response rating (pigweed; [5]): 5
- Redroot pigweed plant response rating (pigweed; [6]): 5
- Plant response rating, Redroot pigweed (pigweed; [7]): 7
- Plant response rating, Crabgrass (crabgrass; [1]): 3
- Plant response rating, Crabgrass (crabgrass; [2]): 3
- Crabgrass plant response rating (crabgrass; [3]): 7
- Plant response rating, Crabgrass (crabgrass; [4]): 7
- Crabgrass plant response rating (crabgrass; [5]): 7
- Crabgrass plant response rating (crabgrass; [6]): 9
- Plant response rating, Crabgrass (crabgrass; [7]): 10
- Plant response rating, Sugarbeets (sugar beet; [1]): 0
- Plant response rating, Sugarbeets (sugar beet; [2]): 5
- Sugarbeets plant response rating (sugar beet; [3]): 5
- Plant response rating, Sugarbeets (sugar beet; [4]): 5
- Sugarbeets plant response rating (sugar beet; [5]): 0
- Sugarbeets plant response rating (sugar beet; [6]): 0
- Plant response rating, Sugarbeets (sugar beet; [7]): 4
- Plant response rating, B. signalgrass (surinam grass; Rate 62 g/ha, scale 0 to 10, 0 is no effect, 10 is complete control): 3
- Plant response rating, B. signalgrass (surinam grass; [8]): 10
- Plant response rating, B. signalgrass (surinam grass; [9]): 10
- B. signalgrass plant response rating (surinam grass; Rate 62 g/ha, scale 0 to 10 (0 no effect, 10 complete control)): 1
- B. signalgrass plant response rating (surinam grass; [8]): 10
- B. signalgrass plant response rating (surinam grass; [9]): 10
- Plant response rating, Rape (rape; [1]): 1
- Plant response rating, Rape (rape; [2]): 5
- Rape plant response rating (rape; [3]): 5
- Plant response rating, Rape (rape; [4]): 7
- Rape plant response rating (rape; [5]): 1
- Rape plant response rating (rape; [6]): 5
- Plant response rating, Rape (rape; [7]): 7
- Plant response rating, Nutsedge (purple nutsedge; [1]): 0
- Plant response rating, Nutsedge (purple nutsedge; [2]): 0
- Nutsedge plant response rating (purple nutsedge; [3]): 0
- Nutsedge plant response rating (purple nutsedge; [6]): 0
- Plant response rating, Nutsedge (purple nutsedge; [7]): 0
- Plant response rating, Soybean (soybean; [1]): 3
- Plant response rating, Soybean (soybean; [2]): 4
- Soybean plant response rating (soybean; [3]): 4
- Soybean plant response rating (soybean; [5]): 0
- Soybean plant response rating (soybean; [6]): 0
- Plant response rating, Soybean (soybean; [7]): 4
- Plant response rating, S. Flatsedge (0 to 10 scale, 0 is no effect, 10 is complete control) (smallflower flatsedge; [10]): 0
- S. Flatsedge plant response rating (0 to 10 scale, 0 is no effect, 10 is complete control) (smallflower flatsedge; [11]): 0
- S. Flatsedge plant response rating (smallflower flatsedge; [12]): 0
- S. Flatsedge plant response rating (smallflower flatsedge; [13]): 0
- Plant response rating, Velvetleaf (velvetleaf; [1]): 0
- Plant response rating, Velvetleaf (velvetleaf; [2]): 0
- Velvetleaf plant response rating (velvetleaf; [3]): 4
- Plant response rating, Velvetleaf (velvetleaf; [4]): 6
- Velvetleaf plant response rating (velvetleaf; [5]): 0
- Velvetleaf plant response rating (velvetleaf; [6]): 4
- Plant response rating, Velvetleaf (velvetleaf; [7]): 7
- Plant response rating, Cocklebur (cocklebur; [1]): 0
- Plant response rating, Cocklebur (cocklebur; [2]): 0
- Cocklebur plant response rating (cocklebur; [3]): 0
- Plant response rating, Cocklebur (cocklebur; [4]): 0
- Cocklebur plant response rating (cocklebur; [5]): 0
- Cocklebur plant response rating (cocklebur; [6]): 0
- Cocklebur plant response rating (0 to 10 scale) (cocklebur; Preemergence, Rate 250 g/ha): 0
- Plant response rating, Cocklebur (cocklebur; [7]): 0
- Plant response rating, Barnyardgrass (0 to 10 scale, 0 is no effect, 10 is complete control) (bamyardgrass; [10]): 0
- Barnyardgrass plant response rating (0 to 10 scale, 0 is no effect, 10 is complete control) (bamyardgrass; [11]): 0
- Barnyardgrass plant response rating (bamyardgrass; [12]): 0
- Barnyardgrass plant response rating (bamyardgrass; [13]): 0
- Plant response rating, Giant foxtail (giant foxtail; [1]): 5
- Plant response rating, Giant foxtail (giant foxtail; [2]): 7
- Giant foxtail plant response rating (giant foxtail; [3]): 7
- Plant response rating, Giant foxtail (giant foxtail; [4]): 9
- Giant foxtail plant response rating (giant foxtail; [5]): 9
- Giant foxtail plant response rating (giant foxtail; [6]): 10
- Plant response rating, Giant foxtail (giant foxtail; [7]): 10
- Plant response rating, Wheat (wheat; [1]): 0
- Wheat plant response rating (wheat; [3]): 0
- Plant response rating, Wheat (wheat; [4]): 0
- Wheat plant response rating (wheat; [5]): 0
- Wheat plant response rating (wheat; [6]): 0
- Plant response rating, Wheat (wheat; [7]): 0
- Plant response rating, Corn (corn; [1]): 0
- Plant response rating, Corn (corn; [2]): 0
- Corn plant response rating (corn; [3]): 0
- Plant response rating, Corn (corn; [4]): 0
- Corn plant response rating (corn; [5]): 0
- Corn plant response rating (corn; [6]): 0
- Corn plant response rating (0 to 10 scale) (corn; Preemergence, Rate 250 g/ha): 0
- Plant response rating, Corn (corn; [7]): 1
- Plant response rating, Morningglory (morningglory; [1]): 0
- Plant response rating, Morningglory (morningglory; [2]): 7
- Morningglory plant response rating (morningglory; [3]): 8
- Plant response rating, Morningglory (morningglory; [4]): 10
- Morningglory plant response rating (morningglory; [5]): 0
- Morningglory plant response rating (morningglory; [6]): 0
- Plant response rating, Morningglory (morningglory; [7]): 4
- Plant response rating, Ducksalad (0 to 10 scale, 0 is no effect, 10 is complete control) (duck salad; [10]): 0
- Ducksalad plant response rating (0 to 10 scale, 0 is no effect, 10 is complete control) (duck salad; [11]): 0
- Ducksalad plant response rating (duck salad; [12]): 0
- Ducksalad plant response rating (duck salad; [13]): 0
- Plant response rating, Wild oats (wild oat; [1]): 3
- Plant response rating, Wild oats (wild oat; [2]): 4
- Wild oats plant response rating (wild oat; [3]): 5
- Plant response rating, Wild oats (wild oat; [4]): 6
- Wild oats plant response rating (wild oat; [5]): 0
- Wild oats plant response rating (wild oat; [6]): 3
- Plant response rating, Wild oats (wild oat; [7]): 6
- Plant response rating, Rice (0 to 10 scale, 0 is no effect, 10 is complete control) (rice; [10]): 0
- Rice plant response rating (0 to 10 scale, 0 is no effect, 10 is complete control) (rice; [11]): 0
- Rice plant response rating (rice; [12]): 0
- Rice plant response rating (rice; [13]): 0

Reference: patent US6737383B1, “Herbicidal oxadiazolidines” (priority 1999, dated 2004)
